Broadly, the inhibition is the drop in the measured response relative to a control, in per cent.

Experiment [1] deals with Glycogen synthase kinase-3 alpha (Homo sapiens) (UniProt P49840). Put plainly: Inhibition of human GSK3a at 500 nM by HotSpot assay relative to control.
Experiment [2] concerns the target Dual specificity mitogen-activated protein kinase kinase 2 (Homo sapiens) (UniProt P36507). Briefly: Inhibition of human MEK2 at 500 nM by HotSpot assay relative to control.
The target in experiment [3] is Fibroblast growth factor receptor 4 (Homo sapiens) (UniProt P22455). Briefly: Inhibition of human FGFR4 at 500 nM by HotSpot assay relative to control.
Experiment [4] addresses Serine/threonine-protein kinase N2 (Homo sapiens) (UniProt Q16513). Put plainly: Inhibition of human PRK2 at 500 nM by HotSpot assay relative to control.
Experiment [5] addresses Serine/threonine-protein kinase SIK2 (Homo sapiens) (UniProt Q9H0K1). Put plainly: Inhibition of human SIK2 at 500 nM by HotSpot assay relative to control.
Experiment [6] deals with T1, Protein kinase C iota type (Homo sapiens) (UniProt P41743).
T1 sequence (whole entry): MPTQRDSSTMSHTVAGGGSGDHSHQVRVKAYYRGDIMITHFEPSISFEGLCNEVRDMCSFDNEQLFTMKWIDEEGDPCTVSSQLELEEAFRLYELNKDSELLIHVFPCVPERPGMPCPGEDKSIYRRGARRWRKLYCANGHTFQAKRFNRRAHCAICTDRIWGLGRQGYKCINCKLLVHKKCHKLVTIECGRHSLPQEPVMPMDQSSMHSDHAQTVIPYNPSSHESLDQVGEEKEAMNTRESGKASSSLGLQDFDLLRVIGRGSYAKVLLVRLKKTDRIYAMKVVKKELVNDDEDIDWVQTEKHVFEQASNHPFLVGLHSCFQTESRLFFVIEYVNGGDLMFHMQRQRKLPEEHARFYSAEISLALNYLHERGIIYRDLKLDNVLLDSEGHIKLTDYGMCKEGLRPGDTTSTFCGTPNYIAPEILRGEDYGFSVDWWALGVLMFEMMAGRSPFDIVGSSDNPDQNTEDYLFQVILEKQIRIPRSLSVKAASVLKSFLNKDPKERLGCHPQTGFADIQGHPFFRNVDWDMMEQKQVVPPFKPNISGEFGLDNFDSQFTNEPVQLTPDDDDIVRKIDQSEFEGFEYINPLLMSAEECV
Briefly: Inhibition of human PKCiota at 500 nM by HotSpot assay relative to control.

Experiment [7] addresses T2, Serine/threonine-protein kinase D3 (Homo sapiens) (UniProt O94806).
T2 sequence (whole entry): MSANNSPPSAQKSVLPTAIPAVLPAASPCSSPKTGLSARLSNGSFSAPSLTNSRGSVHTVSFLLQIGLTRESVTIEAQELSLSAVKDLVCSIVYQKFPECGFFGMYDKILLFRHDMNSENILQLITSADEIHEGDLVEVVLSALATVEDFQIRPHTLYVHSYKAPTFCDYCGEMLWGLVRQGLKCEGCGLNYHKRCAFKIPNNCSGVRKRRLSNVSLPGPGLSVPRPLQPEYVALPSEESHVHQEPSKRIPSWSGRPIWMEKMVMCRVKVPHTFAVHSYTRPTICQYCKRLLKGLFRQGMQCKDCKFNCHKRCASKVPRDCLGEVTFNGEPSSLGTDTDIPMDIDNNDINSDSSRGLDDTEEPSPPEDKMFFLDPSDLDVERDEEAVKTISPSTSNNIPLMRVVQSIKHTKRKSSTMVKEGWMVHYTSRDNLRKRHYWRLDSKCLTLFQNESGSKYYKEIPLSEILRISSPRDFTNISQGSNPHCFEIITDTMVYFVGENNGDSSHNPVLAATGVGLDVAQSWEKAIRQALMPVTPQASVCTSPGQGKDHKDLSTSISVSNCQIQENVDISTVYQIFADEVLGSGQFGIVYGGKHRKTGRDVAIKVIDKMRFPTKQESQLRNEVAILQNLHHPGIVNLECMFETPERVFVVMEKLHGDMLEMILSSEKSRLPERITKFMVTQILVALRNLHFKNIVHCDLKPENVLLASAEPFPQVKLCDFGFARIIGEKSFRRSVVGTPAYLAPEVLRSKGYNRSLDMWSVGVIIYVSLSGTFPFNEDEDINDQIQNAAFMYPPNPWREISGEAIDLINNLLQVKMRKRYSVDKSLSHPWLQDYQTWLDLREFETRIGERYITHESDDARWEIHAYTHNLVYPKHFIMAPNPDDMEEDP
Briefly: Inhibition of human PRKD3 at 500 nM by HotSpot assay relative to control.

For experiment [8], the target named is Calcium/calmodulin-dependent protein kinase type 1B (Homo sapiens) (UniProt Q6P2M8). Put plainly: Inhibition of human CAMK1b at 500 nM by HotSpot assay relative to control.
Experiment [9] concerns the target T3, Tyrosine-protein kinase ITK/TSK (Homo sapiens) (UniProt Q08881).
T3 sequence (whole entry): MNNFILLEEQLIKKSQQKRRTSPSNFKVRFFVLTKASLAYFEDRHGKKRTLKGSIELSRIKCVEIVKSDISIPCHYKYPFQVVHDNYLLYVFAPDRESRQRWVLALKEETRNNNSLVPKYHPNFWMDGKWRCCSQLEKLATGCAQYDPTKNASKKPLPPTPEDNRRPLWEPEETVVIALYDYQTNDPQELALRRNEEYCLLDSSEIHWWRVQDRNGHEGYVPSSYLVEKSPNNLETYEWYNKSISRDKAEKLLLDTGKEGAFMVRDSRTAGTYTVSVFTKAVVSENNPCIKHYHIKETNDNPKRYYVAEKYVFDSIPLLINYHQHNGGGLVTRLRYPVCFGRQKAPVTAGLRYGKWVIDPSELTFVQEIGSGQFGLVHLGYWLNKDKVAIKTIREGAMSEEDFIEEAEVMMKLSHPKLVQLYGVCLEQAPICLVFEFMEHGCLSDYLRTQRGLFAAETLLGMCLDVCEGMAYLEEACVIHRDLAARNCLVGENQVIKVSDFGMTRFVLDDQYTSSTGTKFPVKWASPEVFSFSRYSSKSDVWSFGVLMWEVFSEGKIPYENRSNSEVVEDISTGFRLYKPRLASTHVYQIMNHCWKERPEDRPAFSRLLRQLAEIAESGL
Briefly: Inhibition of human ITK at 500 nM by HotSpot assay relative to control.

Chain of Serine/threonine-protein kinase N2 (Homo sapiens) (Q16513 whole entry, looked up): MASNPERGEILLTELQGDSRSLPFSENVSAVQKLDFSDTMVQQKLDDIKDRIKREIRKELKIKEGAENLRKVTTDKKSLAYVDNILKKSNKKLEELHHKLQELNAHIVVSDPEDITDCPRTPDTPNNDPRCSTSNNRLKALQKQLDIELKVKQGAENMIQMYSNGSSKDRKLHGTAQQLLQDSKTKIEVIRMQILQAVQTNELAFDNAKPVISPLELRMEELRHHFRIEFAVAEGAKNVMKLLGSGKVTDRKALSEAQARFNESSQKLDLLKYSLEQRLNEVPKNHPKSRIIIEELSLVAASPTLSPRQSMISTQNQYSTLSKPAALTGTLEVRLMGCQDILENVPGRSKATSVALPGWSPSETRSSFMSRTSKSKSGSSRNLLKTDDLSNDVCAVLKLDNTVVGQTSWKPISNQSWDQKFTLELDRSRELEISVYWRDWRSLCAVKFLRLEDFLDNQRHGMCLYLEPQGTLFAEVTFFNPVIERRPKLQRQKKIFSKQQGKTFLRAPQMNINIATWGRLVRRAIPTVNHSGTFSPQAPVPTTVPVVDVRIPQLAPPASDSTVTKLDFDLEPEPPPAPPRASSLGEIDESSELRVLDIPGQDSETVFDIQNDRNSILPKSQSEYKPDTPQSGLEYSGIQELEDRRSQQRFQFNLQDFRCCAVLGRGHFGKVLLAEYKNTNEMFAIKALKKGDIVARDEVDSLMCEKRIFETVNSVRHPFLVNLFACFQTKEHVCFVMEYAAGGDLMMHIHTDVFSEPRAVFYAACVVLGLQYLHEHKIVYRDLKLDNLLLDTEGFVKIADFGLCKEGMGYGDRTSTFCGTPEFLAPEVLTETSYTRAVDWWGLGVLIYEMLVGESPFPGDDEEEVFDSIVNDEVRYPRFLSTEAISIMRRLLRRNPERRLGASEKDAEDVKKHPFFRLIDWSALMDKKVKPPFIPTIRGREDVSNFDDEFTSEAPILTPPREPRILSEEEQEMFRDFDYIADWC
Chain of Dual specificity mitogen-activated protein kinase kinase 2 (Homo sapiens) (P36507 whole entry): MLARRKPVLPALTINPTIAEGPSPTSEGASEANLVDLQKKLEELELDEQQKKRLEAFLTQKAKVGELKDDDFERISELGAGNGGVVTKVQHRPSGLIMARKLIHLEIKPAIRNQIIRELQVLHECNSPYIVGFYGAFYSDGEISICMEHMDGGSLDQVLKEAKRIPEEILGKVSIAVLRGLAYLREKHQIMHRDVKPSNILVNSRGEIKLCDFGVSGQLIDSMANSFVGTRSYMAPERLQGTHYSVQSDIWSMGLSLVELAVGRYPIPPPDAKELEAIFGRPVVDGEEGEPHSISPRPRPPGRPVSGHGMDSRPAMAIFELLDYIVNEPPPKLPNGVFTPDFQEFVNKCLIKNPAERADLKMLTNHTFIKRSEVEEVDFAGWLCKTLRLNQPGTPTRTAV
Chain of Serine/threonine-protein kinase SIK2 (Homo sapiens) (Q9H0K1 whole entry, looked up): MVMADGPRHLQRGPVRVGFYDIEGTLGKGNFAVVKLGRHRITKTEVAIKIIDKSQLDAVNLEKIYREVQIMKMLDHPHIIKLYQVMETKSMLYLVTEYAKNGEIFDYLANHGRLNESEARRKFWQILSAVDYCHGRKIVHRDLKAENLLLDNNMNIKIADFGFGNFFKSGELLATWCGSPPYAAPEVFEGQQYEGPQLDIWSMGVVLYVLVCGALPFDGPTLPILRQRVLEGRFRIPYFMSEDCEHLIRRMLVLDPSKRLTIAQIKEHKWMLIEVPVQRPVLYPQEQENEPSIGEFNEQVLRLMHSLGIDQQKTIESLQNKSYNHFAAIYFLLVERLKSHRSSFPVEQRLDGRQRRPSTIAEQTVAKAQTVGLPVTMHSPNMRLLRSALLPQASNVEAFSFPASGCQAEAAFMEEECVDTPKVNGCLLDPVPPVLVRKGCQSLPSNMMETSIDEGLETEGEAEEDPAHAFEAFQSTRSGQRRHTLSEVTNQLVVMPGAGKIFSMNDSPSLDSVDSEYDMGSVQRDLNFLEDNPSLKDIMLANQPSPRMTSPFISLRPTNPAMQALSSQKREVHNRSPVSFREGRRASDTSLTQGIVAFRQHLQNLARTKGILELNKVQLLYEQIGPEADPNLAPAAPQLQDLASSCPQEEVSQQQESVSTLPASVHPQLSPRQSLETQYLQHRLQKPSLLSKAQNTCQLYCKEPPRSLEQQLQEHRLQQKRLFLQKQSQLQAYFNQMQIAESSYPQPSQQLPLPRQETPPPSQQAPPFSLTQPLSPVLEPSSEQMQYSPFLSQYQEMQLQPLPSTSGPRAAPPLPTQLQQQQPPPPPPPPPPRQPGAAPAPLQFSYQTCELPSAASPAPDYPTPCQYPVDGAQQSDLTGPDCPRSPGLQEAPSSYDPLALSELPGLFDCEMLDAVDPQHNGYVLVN
Chain of Calcium/calmodulin-dependent protein kinase type 1B (Homo sapiens) (Q6P2M8 whole entry): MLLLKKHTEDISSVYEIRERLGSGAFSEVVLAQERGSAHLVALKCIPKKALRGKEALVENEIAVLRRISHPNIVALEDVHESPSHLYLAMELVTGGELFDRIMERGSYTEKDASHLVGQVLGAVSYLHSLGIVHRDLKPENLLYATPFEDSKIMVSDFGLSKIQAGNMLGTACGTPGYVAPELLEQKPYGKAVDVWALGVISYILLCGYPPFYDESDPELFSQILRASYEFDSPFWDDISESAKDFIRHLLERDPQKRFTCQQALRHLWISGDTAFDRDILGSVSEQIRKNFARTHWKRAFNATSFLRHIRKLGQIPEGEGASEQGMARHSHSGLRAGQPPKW
Chain of Fibroblast growth factor receptor 4 (Homo sapiens) (P22455 22-802 limits assumed): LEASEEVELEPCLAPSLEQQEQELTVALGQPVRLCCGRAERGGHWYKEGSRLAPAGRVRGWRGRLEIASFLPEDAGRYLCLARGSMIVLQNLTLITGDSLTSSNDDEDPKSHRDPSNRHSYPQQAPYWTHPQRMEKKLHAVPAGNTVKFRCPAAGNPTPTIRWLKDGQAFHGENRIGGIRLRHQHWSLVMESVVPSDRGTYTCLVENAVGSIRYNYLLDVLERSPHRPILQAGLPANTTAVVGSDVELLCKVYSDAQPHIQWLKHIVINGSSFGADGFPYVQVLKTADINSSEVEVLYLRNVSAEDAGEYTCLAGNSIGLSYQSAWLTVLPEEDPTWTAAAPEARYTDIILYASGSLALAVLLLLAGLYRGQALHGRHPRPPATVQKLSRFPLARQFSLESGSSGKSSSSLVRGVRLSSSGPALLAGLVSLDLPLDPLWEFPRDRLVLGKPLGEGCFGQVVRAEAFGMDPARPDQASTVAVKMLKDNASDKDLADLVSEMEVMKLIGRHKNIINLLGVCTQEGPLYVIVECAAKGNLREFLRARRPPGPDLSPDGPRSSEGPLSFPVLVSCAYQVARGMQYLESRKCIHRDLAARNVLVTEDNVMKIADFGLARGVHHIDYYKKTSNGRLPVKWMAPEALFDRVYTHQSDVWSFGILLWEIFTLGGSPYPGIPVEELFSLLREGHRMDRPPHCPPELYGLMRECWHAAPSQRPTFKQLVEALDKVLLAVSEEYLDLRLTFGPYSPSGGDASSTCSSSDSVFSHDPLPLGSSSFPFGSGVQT
Chain of Glycogen synthase kinase-3 alpha (Homo sapiens) (P49840 2-483 limits assumed): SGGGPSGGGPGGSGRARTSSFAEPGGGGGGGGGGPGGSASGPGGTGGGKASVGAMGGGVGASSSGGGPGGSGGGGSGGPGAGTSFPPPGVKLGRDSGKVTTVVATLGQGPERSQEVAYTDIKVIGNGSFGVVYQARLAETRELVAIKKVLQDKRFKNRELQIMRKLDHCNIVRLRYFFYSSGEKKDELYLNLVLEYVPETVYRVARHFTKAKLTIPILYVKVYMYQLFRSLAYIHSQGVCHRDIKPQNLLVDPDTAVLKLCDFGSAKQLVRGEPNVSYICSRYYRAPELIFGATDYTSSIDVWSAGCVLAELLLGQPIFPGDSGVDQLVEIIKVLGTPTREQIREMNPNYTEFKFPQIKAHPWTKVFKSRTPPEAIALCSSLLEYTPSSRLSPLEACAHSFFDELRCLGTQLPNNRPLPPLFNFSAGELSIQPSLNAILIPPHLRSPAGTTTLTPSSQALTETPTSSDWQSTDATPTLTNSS

`Oc1n[nH]c2nnc(-c3c(-c4ccccc4)nn4ccccc34)cc12`: the inhibition is -1.18% in experiment [1]; 1.44% in [2]; -3.29% in experiment [3]; 1.9% in experiment [4]; 14.5% in experiment [5]; 1.33% in experiment [6]. Besides, the inhibition in [7] is 1.12%; in experiment [8] it was -0.91%; in experiment [9], 6.55%.
For the molecule `Nc1n[nH]c2nnc(-c3c(-c4ccccc4)nn4ccccc34)cc12`, the inhibition was 18.9% in [1]; 0.62% in experiment [2]; -3.98% in experiment [3]; 1.14% in experiment [4]; 6.36% in experiment [5]; 1.7% in [6]. The figures for the inhibition in experiment [7], in experiment [8] and in [9] were 41.1%, 0.39% and 9.17%, respectively.
